Assay results published in patent publication US6689806B1, “Indolinone compounds as kinase inhibitors” (Sugen, Inc., priority 1999, dated 2004).

How the values were obtained:
Type in all cases: cell-based
Her2 [1] = target: T1, Her2 (Homo sapiens, UniProt P04626); assay: HER-2 ELISA: EGF receptor-HER2 chimeric receptor assay in whole cells (HER2 kinase); conditions: NIH3T3 cells with EGFR/HER2 chimeric receptor, phosphotyrosine ELISA
T1 construct: fused on or other part: P00533 (Epidermal growth factor receptor)
T1 sequence (P04626 676-1255 limits assumed): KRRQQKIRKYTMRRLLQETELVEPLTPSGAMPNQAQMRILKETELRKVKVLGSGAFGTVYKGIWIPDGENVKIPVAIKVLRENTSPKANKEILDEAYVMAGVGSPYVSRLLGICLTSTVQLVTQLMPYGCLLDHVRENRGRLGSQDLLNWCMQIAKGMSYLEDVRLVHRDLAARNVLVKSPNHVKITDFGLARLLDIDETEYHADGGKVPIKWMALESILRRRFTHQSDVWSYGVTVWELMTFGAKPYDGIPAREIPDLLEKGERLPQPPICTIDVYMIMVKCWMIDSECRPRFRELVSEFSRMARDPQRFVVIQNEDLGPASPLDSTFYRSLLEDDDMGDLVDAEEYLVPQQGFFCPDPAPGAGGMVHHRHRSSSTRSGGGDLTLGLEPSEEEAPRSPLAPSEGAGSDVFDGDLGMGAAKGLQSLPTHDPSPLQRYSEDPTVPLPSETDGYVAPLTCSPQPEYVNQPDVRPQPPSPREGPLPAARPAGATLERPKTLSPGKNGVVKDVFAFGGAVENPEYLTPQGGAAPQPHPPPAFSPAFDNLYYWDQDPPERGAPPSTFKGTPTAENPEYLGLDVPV
Method in brief: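 NIH3T3 cells expressing an EGFR extracellular/HER2 kinase-domain chimera, serum-reduced (0.5%), pretreated 2 h with compound (1% DMSO final), then stimulated 5 min with 100 nM EGF at room temperature. Lysate phosphotyrosine quantified by anti-pTyr ELISA, OD 410 nm; % inhibition after negative-control subtraction.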

Her2 [2] = target: T1, Her2; assay: EGF-induced Her2-driven BrdU incorporation; conditions: 3T3 cells with EGF-R/Her2 chimeric receptor, EGF 2 nM, read-out: BrdU DNA syn. HER2 IC50
Experimental: The cellular/biologic assays described herein measure the amount of DNA made in response to activation of a test kinase, which is a general measure of a proliferative response. The general procedure for this assay is as follows: a compound is introduced to cells expressing the test kinase, either naturally or recombinantly, for some period of time after which, if the test kinase is a receptor, a ligand known to activate the receptor is added. After incubation at least overnight, a DNA labeling reagent such as Bromodeoxy-uridine (BrdU) or 3H-thymidine is added. The amount of labeled DNA is detected with either an anti-BrdU antibody or by measuring radioactivity and is compared to control cells not contacted with a test compound.
EGF-Induced Her2-Driven BrdU Incorporation
(8) 3T3 cell line engineered to express a chimeric receptor having the extra-cellular domain of EGF-R and the intra-cellular domain of Her2.
(1) Cells are seeded at 8000 cells/well in DMEM, 10% CS, 2 mM Gln in a 96-well plate. Cells are incubated overnight at 37° C. in 5% CO2.
(2) After 24 hours, the cells are washed with PBS, and then are serum starved in serum free medium (0% CS DMEM with 0.1% BSA) for 24 hours.
(3) On day 3, ligand (EGF=2 nM, prepared in DMEM with 0.1% BSA) and test compounds are added to the cells simultaneously. The negative control wells receive serum free DMEM with 0.1% BSA only; the positive control cells receive the ligand (EGF) but no test compound. Test compounds are prepared in serum free DMEM with ligand in a 96 well plate, and serially diluted for 7 test concentrations.
(4) After 20 hours of ligand activation, diluted BrdU labeling reagent (1:100 in DMEM, 0.1% BSA) is added and the cells are incubated with BrdU (final concentration=[…]) for 1.5 hours.
(10) The absorbance of the samples are measured at 410 nm (in “dual wavelength” mode with a filter reading at 490 nm, as a reference wavelength) on a Dynatech ELISA plate reader.

SKOV3 = SKOV3 growth; conditions: Homo sapiens, SK-OV-3, SKOV3 cells
A431 = A431 growth; conditions: Homo sapiens, A-431, A431 cells

IC50 (Her2 [1]; Table 7) [µM] | IC50 (Her2 [2]; Table 7) [µM] | IC50 (Her2 [1]; Table 5) [µM] | IC50 (SKOV3; Table 5) [µM] | IC50 (A431; Table 5) [µM] | IC50 (Her2 [2]; Table 5) [µM] | IC50 (SKOV3; Table 7) [µM] | IC50 (A431; Table 7) [µM] | SMILES
> 100 | > 50 |  |  |  |  |  |  | Cc1ccc(O)c(C=C2C(=O)Nc3cccc(CCO)c32)n1 (racemic) [IN-022, 4-(2-Hydroxy-ethyl)-3-(3-hydroxy-6-methyl-pyridin-2-ylmethylene)-1,3-dihydro-indol-2-one]
 |  | 16.4 | 17.9 | 5.26 | 32.7 |  |  | COc1ccc(CC2C(=O)Nc3ccc(F)cc32)cc1C1CCCC1 (centres unmarked) [AAI-5, 3-(3-Cyclopentyl-4-methoxybenzyl)-5-fluoro-1,3-dihydroindol-2-one]
 |  | > 100 |  |  | 27.3 |  |  | COc1ccc(CC2C(=O)Nc3cc(NC(C)=O)ccc32)cc1-c1cccs1 (centres unmarked) [AAI-6, N-[3-(4-Methoxy-3-thiophen-2-ylbenzyl)-2-oxo-2,3-dihydro-1H-indol-6-yl]-acetamide]
 |  | > 100 |  |  | 6.8 |  |  | CC(=O)Nc1ccc2c(c1)NC(=O)C2Cc1ccc(OCCN2CCOCC2)c(C2CCCCC2)c1 (centres unmarked) [AAI-7, N-{3-[3-Cyclohexyl-4-(2-morpholin-4-ylethoxy)-benzyl]-2-oxo-2,3-dihydro-1H-indol-6-yl}-acetamide]
 |  | > 100 |  |  | 11.5 |  |  | COc1ccc(CC2C(=O)Nc3ccc(CCN4CCOCC4)cc32)cc1-c1ccsc1 (centres unmarked) [AAI-8, 3-(4-Methoxy-3-thiophen-3-ylbenzyl)-5-(2-morpholin-4-ylethyl)-1,3-dihydroindol-2-one]
 |  | 22.2 | 17.3 | 17.7 | 34.1 |  |  | COc1c(C(C)C)cc(CC2C(=O)Nc3ccccc32)cc1C(C)C (centres unmarked) [AAI-10, 3-(3,5-Diisopropyl-4-methoxybenzyl)-1,3-dihydroindol-2-one]
 |  | > 100 | 21.8 | 29.6 | > 50 |  |  | O=C1Nc2ccc(F)cc2C1Cc1ccc(O)c(C2CCCC2)c1 (centres unmarked) [AAI-11, 3-(3-Cyclopentyl-4-hydroxybenzyl)-5-fluoro-1,3-dihydroindol-2-one]
 |  | > 100 | > 50 | > 50 | > 50 |  |  | COc1cccc(-c2ccc3c(c2)NC(=O)C3Cc2ccccc2O)c1 (centres unmarked) [AAI-13, 3-(2-Hydroxybenzyl)-6-(3-methoxyphenyl)-1,3-dihydroindol-2-one]
 |  | > 100 |  |  | > 50 |  |  | Cc1cccc2c1C(Cc1ccc3[nH]ccc3c1)C(=O)N2 (centres unmarked) [AAI-16, 3-(1H-Indol-5-ylmethyl)-4-methyl-1,3-dihydroindol-2-one]
 |  | > 100 |  |  | > 50 |  |  | O=C1Nc2ccccc2C1Cc1ccc2[nH]ccc2c1 (centres unmarked) [AAI-17, 3-(1H-Indol-5-ylmethyl)-1,3-dihydroindol-2-one]
 |  | 28.5 | 43 | > 50 | > 50 |  |  | Cc1[nH]c(CC2C(=O)Nc3ccccc32)c(C)c1CCCN(C)C (centres unmarked) [AAI-18, 3-[4-(3-Dimethylaminopropyl)-3,5-dimethyl-1H-pyrrol-2-ylmethyl]-1,3-dihydroindol-2-one]
 |  | 20.9 | 8.81 | 11.1 | 29.2 |  |  | COc1ccccc1-c1ccc2c(c1)NC(=O)C2Cc1[nH]c(C)c(CCCN(C)C)c1C (centres unmarked) [AAI-20, 3-[4-(3-Dimethylamino-propyl)-3,5-dimethyl-1H-pyrrol-2-ylmethyl]-6-(2-methoxy-phenyl)-1,3-dihydro-indol-2-one]
 |  | 52.9 |  |  | > 50 |  |  | COc1cccc(-c2ccc3c(c2)NC(=O)C3Cc2[nH]c(C)c(CCCN(C)C)c2C)c1 (centres unmarked) [AAI-21, 3-[4-(3-Dimethylaminopropyl)-3,5-dimethyl-1H-pyrrol-2-ylmethyl]-6-(3-methoxyphenyl)-1,3-dihydroindol-2-one]
 |  | 21.4 | > 50 | 32.9 | > 50 |  |  | COc1ccc(-c2ccc3c(c2)NC(=O)C3Cc2[nH]c(C)c(CCCN(C)C)c2C)cc1 (centres unmarked) [AAI-22, 3-[4-(3-Dimethylaminopropyl)-3,5-dimethyl-1H-pyrrol-2-ylmethyl]-6-(4-methoxyphenyl)-1,3-dihydroindol-2-one]
 |  | 54.1 |  |  | > 50 |  |  | Cc1[nH]c(CC2C(=O)Nc3ccc(Cl)cc32)c(C)c1CCCN(C)C (centres unmarked) [AAI-23, 5-Chloro-3-[4-(3-dimethylaminopropyl)-3,5-dimethyl-1H-pyrrol-2-ylmethyl]-1,3-dihydroindol-2-one]
 |  | 26.1 |  |  | 30.9 |  |  | O=C1Nc2cc(-c3ccccc3)ccc2C1Cc1cccc(F)c1O (centres unmarked) [AAI-24, 3-(3-Fluoro-2-hydroxybenzyl)-6-phenyl-1,3-dihydroindol-2-one]
 |  | > 100 |  |  | > 50 |  |  | COc1ccc(CC2C(=O)Nc3cc(-c4ccccc4)ccc32)c(O)c1 (centres unmarked) [AAI-25, 3-(2-Hydroxy-4-methoxybenzyl)-6-phenyl-1,3-dihydroindol-2-one]
 |  | > 100 |  |  | > 50 |  |  | Cc1cccc(CC2C(=O)Nc3cccc(CCO)c32)n1 (centres unmarked) [AAI-27, 4-(2-Hydroxyethyl)-3-(6-methylpyridin-2-ylmethyl)-1,3-dihydroindol-2-one]
16.6 | 28.9 |  |  |  |  | 27.8 | 12.3 | CC(C)c1cccc(OCCc2cccc3c2CC(=O)N3)c1 [IN-001, 4-[2-(3-Isopropyl-phenoxy)-ethyl]-1,3-dihydro-indol-2-one]
18 | 30 |  |  |  |  | 24.5 | 8.2 | CC(C)c1ccccc1OCCc1cccc2c1CC(=O)N2 [IN-002, 4-[2-(2-Isopropyl-phenoxy)-ethyl]-1,3-dihydro-indol-2-one]
15.5 | 12.1 |  |  |  |  | 17.8 | 8.7 | O=C1Cc2c(CCOc3cccc(-c4ccccc4)c3)cccc2N1 [IN-003, 4-[2-(Biphenyl-3-yloxy)-ethyl]-1,3-dihydro-indol-2-one]
10.6 | 3.6 |  |  |  |  | 2.9 | 1.1 | O=C1Nc2cccc(CCO)c2/C1=C\c1ccc(Br)cc1 [IN-004, 3-(4-Bromo-benzylidene)-4-(2-hydroxy-ethyl)-1,3-dihydro-indol-2-one]
12.9 | 1.6 |  |  |  |  |  |  | O=C1Nc2cccc(CCO)c2/C1=C/c1ccccn1 [IN-005, 4-(2-Hydroxy-ethyl)-3-pyridin-2-ylmethylene-1,3-dihydro-indol-2-one]
10.6 | 6.6 |  |  |  |  | 5 | 6 | Cc1cccc(/C=C2\C(=O)Nc3cccc(CCO)c32)n1 [IN-006]
8.5 | 2.3 |  |  |  |  | 1.5 | 2.5 | COc1ccc(/C=C2\C(=O)Nc3cccc(CCO)c32)cc1-c1cccs1 [IN-008, 4-(2-Hydroxy-ethyl)-3-(4-methoxy-3-thiophen-2-yl-benzylidene)-1,3-dihydro-indol-2-one]
> 100 | 33.8 |  |  |  |  |  |  | Cc1[nH]c(/C=C2\C(=O)Nc3cccc(CCOc4cccc(C(C)C)c4)c32)c(C)c1CCCN(C)C [IN-023]
> 100 | > 50 |  |  |  |  |  |  | Cc1[nH]c(/C=C2\C(=O)Nc3cccc(CCOc4ccc(C(C)C)cc4)c32)c(C)c1CCC(=O)O [IN-024, 3-(5-{4-[2-(4-Isopropyl-phenoxy)-ethyl]-2-oxo-1,2-dihydro-indol-3-ylidenemethyl}-2,4-dimethyl-1H-pyrro-3-yl)-propionic acid]
